Assay results as given in ChEMBL document CHEMBL1144624, “1,2,3-Triazolylalkylribitol derivatives as nucleoside hydrolase inhibitors” (Bioorg Med Chem Lett, 2007).

What follows are molecules tested against T1, IAG-nucleoside hydrolase (Trypanosoma vivax, UniProt Q9GPQ4) (assay: Inhibition of Trypanosoma vivax IAG-nucleoside hydrolase).
T1 sequence (Q9GPQ4 whole entry): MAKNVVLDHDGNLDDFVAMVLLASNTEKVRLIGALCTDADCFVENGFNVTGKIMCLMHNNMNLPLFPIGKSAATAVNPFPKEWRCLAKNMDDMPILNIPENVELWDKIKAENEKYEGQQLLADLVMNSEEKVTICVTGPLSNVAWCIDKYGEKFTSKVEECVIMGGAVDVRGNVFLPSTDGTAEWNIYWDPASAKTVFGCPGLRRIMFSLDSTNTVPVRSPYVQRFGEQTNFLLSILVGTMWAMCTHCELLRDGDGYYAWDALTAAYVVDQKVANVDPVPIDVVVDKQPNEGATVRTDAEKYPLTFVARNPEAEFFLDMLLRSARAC

Row | Structure (SMILES) | Ki [µM]
1 | [N-]=[N+]=NCC[C@@H]1O[C@H](CO)[C@@H](O)[C@H]1O | 5600
2 | CCc1nnn(CC[C@@H]2O[C@H](CO)[C@@H](O)[C@H]2O)c1CC | 63
3 | OC[C@H]1O[C@@H](CCn2cc(-c3ccccc3)nn2)[C@H](O)[C@@H]1O | 21
4 | OC[C@H]1O[C@@H](CCn2cc(-c3ccccn3)nn2)[C@H](O)[C@@H]1O | 23

The next lines start with the values.

Row | Ki [µM] | Structure (SMILES)
5 | 32 | Cc1nnn(CC[C@@H]2O[C@H](CO)[C@@H](O)[C@H]2O)c1-c1ccccc1
6 | 87 | Cc1c(-c2ccccc2)nnn1C[C@@H]1O[C@H](CO)[C@@H](O)[C@H]1O
7 | 2.3 | Cc1c(-c2ccccc2)nnn1CC[C@@H]1O[C@H](CO)[C@@H](O)[C@H]1O
8 | 680 | OC[C@H]1O[C@@H](CCn2nncc2-c2ccccc2)[C@H](O)[C@@H]1O
9 | 520 | Cc1nnn(C[C@@H]2O[C@H](CO)[C@@H](O)[C@H]2O)c1-c1ccccc1
